Among the test systems are ML-2; M07e; MOLM-13; MV4-11; CMK; U937; CMS; CHRF288-11.
Common to all, as to set-up: species or system AML cell lines (8); Primary HTS, single concentration about 10 uM, Cell Titer Glo viability; log10 luminescence, per cent inhibition relative to cycloheximide control
What all share (conditions): 72 h, relative to cycloheximide control, log10 luminescence; inhibitor
Background: ATP-based viability assays read luminescence as a measure of living cells.

In the case of `Cn1cc(C2=C(c3cccc4ccccc34)C(=O)NC2=O)c2ccccc21` [SJ000581136-1], in the experiment on ML-2, the ML-2 %inh is -1.062%. This compound had an M07e %inh in the experiment with M07e of 1.122%. In addition, the MOLM-13 %inh with MOLM-13 is reported as -0.09214%. The MV4-11 %inh in the experiment on MV4-11 is given as 3.742%. Moreover, the CMK %inh in the experiment on CMK was determined as 2.941%. The U937 %inh in the experiment on U937 stood at 2.302%. For the same compound, the CMS %inh with CMS was determined as 3.922%. The CHRF288-11 %inh in the experiment with CHRF288-11 was 6.432%.

In the case of `Cn1cc(C2=C(c3cccc([N+](=O)[O-])c3)C(=O)NC2=O)c2ccccc21` [SJ000581137-1], the ML-2 %inh in the experiment on ML-2 was found to be 13.53%. Further, the M07e %inh in the experiment on M07e was found to be 11.35%. For the same compound, in the experiment with MOLM-13, the MOLM-13 %inh came to 11.77%. The compound also gave an MV4-11 %inh with MV4-11 of 20.06%. Moreover, the CMK %inh in the experiment on CMK is 90.94%. For the same compound, the U937 %inh in the experiment on U937 is -0.4034%. In addition, the CMS %inh with CMS is listed as 50.99%. In addition, in the experiment with CHRF288-11, the CHRF288-11 %inh was 36.65%.

As for `Cn1c(=O)c(Oc2ccc(F)cc2F)cc2cnc(NCC(C)(C)O)nc21` [SJ000581138-1], the ML-2 %inh in the experiment with ML-2 was -0.3186%. In addition, in the experiment with M07e, the M07e %inh worked out at 5.81%. In addition, the MOLM-13 %inh in the experiment on MOLM-13 was determined as 1.398%. The compound further showed an MV4-11 %inh in the experiment with MV4-11 of 3.026%. This compound came in with a CMK %inh in the experiment with CMK of 2.21%. The U937 %inh in the experiment on U937 came to 1.09%. The CMS %inh in the experiment with CMS is reported as 0.7178%. In addition, in the experiment with CHRF288-11, the CHRF288-11 %inh is listed as 7.837%.

With `CC(=O)N[C@@H](Cc1ccc(OP(=O)(O)O)cc1)C(=O)N[C@H]1CCC(=O)N2CCC[C@@H](C(=O)NCc3ccc(O)cc3)N2C1=O` [SJ000581139-1], the ML-2 %inh with ML-2 is recorded as -0.8925%. In the experiment on M07e, this compound yielded an M07e %inh of 2.301%. For the same compound, the MOLM-13 %inh in the experiment with MOLM-13 stood at 2.506%. The compound further gave an MV4-11 %inh in the experiment on MV4-11 of 1.337%. In the experiment with CMK, this compound had a CMK %inh of 0.1299%. For the same compound, the U937 %inh with U937 was -0.05209%. The CMS %inh in the experiment with CMS turned out to be 2.649%. In addition, the CHRF288-11 %inh with CHRF288-11 is listed as -2.024%.

`COc1ccccc1CN=C1NC(=O)/C(=C/c2ccc3ncccc3c2)S1` [SJ000581141-1]: the ML-2 %inh with ML-2 is 2.098%. In addition, the M07e %inh in the experiment with M07e was found to be 13.46%. In addition, in the experiment on MOLM-13, the MOLM-13 %inh was determined as 11.11%. Besides, in the experiment with MV4-11, the MV4-11 %inh is listed as 3.855%. For the same compound, the CMK %inh in the experiment on CMK is recorded as 34.72%. In the experiment on U937, the U937 %inh amounted to 8.458%. The CMS %inh in the experiment on CMS is 6.446%. Moreover, the CHRF288-11 %inh in the experiment with CHRF288-11 was -2.393%.

`COc1ccccc1C(=O)c1cnc(NC2CCN(S(C)(=O)=O)CC2)nc1N` [SJ000581142-1]: the ML-2 %inh in the experiment with ML-2 is 3.568%. In the experiment with M07e, this compound had an M07e %inh of 6.858%. In addition, the MOLM-13 %inh with MOLM-13 was determined as 12.27%. The same compound gave an MV4-11 %inh in the experiment on MV4-11 of 2.743%. In the experiment on CMK, this compound came in with a CMK %inh of 37.79%. For the same compound, the U937 %inh in the experiment on U937 is 8.409%. Also, the CMS %inh in the experiment on CMS worked out at 7.4%. Further, the CHRF288-11 %inh in the experiment on CHRF288-11 turned out to be 2.52%.

Turning to `CN[C@H](C#Cc1c(F)ccc2c1/C(=C/c1[nH]ccc1OC)C(=O)N2)CO` [SJ000581143-1], the ML-2 %inh with ML-2 is 61.18%. In the experiment with M07e, the M07e %inh was found to be 77.31%. The MOLM-13 %inh in the experiment on MOLM-13 came out at 108.7%. The MV4-11 %inh in the experiment with MV4-11 is reported as 81.33%. For the same compound, in the experiment on CMK, the CMK %inh is 110.7%. Further, the U937 %inh in the experiment on U937 turned out to be 84.86%. The CMS %inh in the experiment on CMS was 103.6%. For the same compound, the CHRF288-11 %inh with CHRF288-11 is recorded as 59.49%.

With `COc1cccc(C2=C(c3c(C)n(C)c4ccccc34)C(=O)NC2=O)c1` [SJ000581144-1], in the experiment with ML-2, the ML-2 %inh is recorded as -0.7501%. Also, the M07e %inh with M07e is on record as 8.342%. Further, in the experiment on MOLM-13, the MOLM-13 %inh came out at 3.467%. In the experiment with MV4-11, this compound returned an MV4-11 %inh of 0.7267%. The compound further showed a CMK %inh in the experiment with CMK of 1.238%. Further, the U937 %inh with U937 amounted to 1.12%. Moreover, in the experiment with CMS, the CMS %inh is -0.561%. Moreover, the CHRF288-11 %inh in the experiment on CHRF288-11 is 0.2394%.

For the origin of these results see PMC6522510 (Nature Communications, 2019).
